Values quoted from earlier work in patent publication EP0268928A2, “Safened pesticidal dispersion resin compositions for controlling soil borne pests and process for the preparation thereof” (priority 1986, dated 1988).

System: rats
Details: technical grade

For `CCOP(=S)(OCC)SCSCC` [phorate, 0,0-diethyl-S-(ethylthiomethyl)phosphorodithioate], the “acute oral LD50 value in rats” value is given as 1.6-3.7 mg technical/kg.
